Experimental data taken from PMC8419995, “In vitro and in vivo efficacy of thiacloprid against Echinococcus multilocularis” (Parasites & Vectors, 2021).
Where two headings read alike, the source gives them in different places.

Experiments:
[1] = tested on: IL-2, IL-4, IL-10 and IgE; test: ELISA of cytokines and IgE in infected mice; type: in vivo; details: infected BALB/c mice, 6 weeks oral treatment
Procedure: In vitro-grown metacestode vesicles were pressed through a 500 µm mesh and washed three times with sterile PBS. The parasite tissue was then taken up in an equal volume of sterile PBS. Each mouse was intraperitoneally injected with 200 μl suspension. Seven mice were injected with 200 μl PBS as the control group. Twenty-eight infected mice were randomly distributed into four groups (7 mice/group): the untreated group was not administered any drug; the ABZ group was treated with ABZ orally (100 mg/kg/day); and the Thia15 group and Thia30 group received thiacloprid orally (15 mg/kg/day and 30 mg/kg/day). Treatments of mice started 2 weeks post-infection, and treatments were administered daily for 6 weeks. After 6 weeks of treatment, whole blood via the orbital sinus was collected from mice and the animals were euthanized by CO2. Blood samples were incubated at 37 °C for 1 h and centrifuged at 3500 rpm for 10 min at 4 °C. The serum was harvested and stored at –20 °C for IL-2, IL-4, IL-10 and IgE detection. All metacestode tissues were collected, and the total wet weight of metacestodes per mice was determined. Furthermore, the content of cytokines in microcyst fluid was detected by enzyme-linked immunosorbent assay (ELISA). Several metacestode tissue specimens were processed for transmission electron microscopy (TEM) and histopathological experiments.
ELISA was employed to detect serum IL-2, IL-4, IL-10 and IgE following the manufacturer's instructions. Mouse collagen I and collagen III ELISA kits were used to measure the levels of collagen I and collagen III in the cell culture supernatant after intervention with thiacloprid. All ELISA kits were provided by Elabscience Biotechnology Co., Ltd., Wuhan, China. The OD value at 450 nm was read with a Tecan Infinite M200 PRO enzyme reader (Männedorf, Switzerland), and the concentration was calculated according to the standard curve.

[2] = tested on: Reuber rat hepatoma (RH) cells; test: alamarBlue cytotoxicity assay, RH cells; type: cell-based; details: 120 h, 5 days
Procedure: An alamarBlue assay was used to assess the toxicity of thiacloprid to confluent and pre-confluent mammalian cells in vitro [29]. Human foreskin fibroblasts (HFF, Procell) and rat hepatoma cells (RH, Procell) were seeded into 96-well cell culture plates in DMEM supplemented with 10% FBS and 1% penicillin–streptomycin at 37 °C and 5% CO2. For detecting the growth inhibitory effects of confluent cells, HFF and RH cells were seeded at 10,000 cells per well and 50,000 cells per well, respectively. After overnight culture, thiacloprid or PZQ was added and diluted in serial concentrations (0, 0.6, 1.2, 2.5, 5, 10, 20, 40, 80 and 160 μM). For detecting growth inhibitory effects on proliferating cells, cells were seeded at 1000 (HFF) and 5000 (RH) cells per well. Thiacloprid was added after 5 h of cell attachment. To measure the viability of the cells after treatment for 5 days, the alamarBlue assay was employed and viability calculated as described previously.

N#C/N=C1\SCCN1Cc1ccc(Cl)nc1 [thiacloprid]
Expression of IL-2, IL-4 and IL-10 in microcyst fluid [1]: upregulated | Expression of IL-2, IL-4 and IL-10 in serum compared with the untreated group [1]: upregulated | Expression of IgE in serum compared with the untreated group [1]: downregulated | IC50 ([2]; confluent cells, read-out: IC50 on confluent RH cells): 91.4 ± 1.33 µM | IC50 ([2]; pre-confluent cells, read-out: IC50 on pre-confluent RH cells): 74.3 ± 10.8 µM
